# Source: patent publication US20100160408A1, “VILDAGLIPTIN FOR TREATING GENERAL PERIPHERAL NEUROPATHIES” (priority 2004, published 2010)
# Tests used:
# aged rats [1] = assay: Morris water maze learning test in aged rats; format: in vivo; conditions: repeated oral administration, vildagliptin 3 mg/kg and/or donepezil 0.3 mg/kg, test started on day 20 of treatment, versus control group
# Source text: (§1) The ameliorative effect of vildagliptin or the combined use of vildagliptin with the compounds having cholinesterase inhibitory activity on learning deficits is investigated in aged rats.
# (§2) Methods Male (3 to 27 months old) rats of transgenic strain are used. The aged rats are divided into the following four groups (the active ingredient dosage can be adapted by the person skilled in the art).
# (§3) 1) Control group: Repeated administration of placebo pill.
# (§4) 2) Vildagliptin group: Repeated oral administration of vildagliptin 3 mg/kg.
# (§5) Passive avoidance learning test is started on day 14 of treatment, and Morris water maze learning test on day 20 of treatment.
# (§6) On each day of experiment, vildagliptin arid/or a cholinesterase inhibitor are administered 30 minutes and 1 hour, respectively, before initiation of the trial.
# Morris Water Maze Learning Same animals used in the passive avoidance test are subjected for the water maze task. However, some rats can not swim well in the water tank, thus they are excluded in the water maze task.
# In pretraining which is performed for swimming training and motivation for escaping from water, four trials are performed using a water bath, 80 cm in diameter, in a condition that the platform is visible. […]
# aged rats [2] = assay: Passive avoidance learning test in aged rats; format: in vivo; conditions: repeated oral administration, vildagliptin 3 mg/kg and/or donepezil 0.3 mg/kg, test started on day 14 of treatment, versus control group
# Source text: as §1, §2, §3, §4, §5, §6
# Passive Avoidance Learning: The passive avoidance learning test is performed using a chamber consisting of light and dark compartments. […] After a mouse moves to the dark compartment, the mouse is kept there for about 10 seconds with the door closed. One to two hours after the habituation trial, acquisition trial is performed. […]
# In each trial, the latency from opening of the slide door until the animal moved to the dark compartment (step-through latency) is measured.
smiles,measurement,setting,value
"N#C[C@@H]1CCCN1C(=O)CNC12CC3CC(CC(O)(C3)C1)C2 [vildagliptin, (S)-1-[(3-hydroxy-1-adamantyl)amino]acetyl-2-cyano-pyrrolidine]",water maze learning deficit (latency to find platform submerged in the water),aged rats [1],significant improvement in water maze learning deficit
same,learning deficit in passive avoidance learning (step-through latency / avoidance time),aged rats [2],significant improvement of the learning deficit
